Assay results taken from ChEMBL document CHEMBL3045144, “Relationship between physicochemical properties and herbicidal activity of 1,2,5-oxadiazole N-oxide derivatives” (Molecules, 2005).

Experiments:
[1] = Retention factor, logKw of the compound in pure aqueous mobile phases by RP-HPLC method; type: physicochemical; conditions: buffer
Triticum aestivum [2] = experiment: Pre-emergence herbicidal activity against Triticum aestivum L. (wheat) assessed change in leaf length; type: functional; design: concentration or dose not given beside the values
Triticum aestivum [3] = experiment: Pre-emergence herbicidal activity against Triticum aestivum L. (wheat) assessed change in aerial weight; type: functional; design: concentration or dose not given beside the values
Triticum aestivum [4] = experiment: Pre-emergence herbicidal activity against Triticum aestivum L. (wheat) assessed change in radicular weight; type: functional; design: concentration or dose not given beside the values

SMILES	logKw [1]	Activity (Triticum aestivum [2])	Activity (Triticum aestivum [3])	Activity (Triticum aestivum [4])
O=C(c1ccc2c(c1)no[n+]2[O-])N1CCOCC1	1.27	-2.06%	-55%	-52%
O=C(Nc1ccc(Cl)cc1)c1ccc2c(c1)no[n+]2[O-]	–	-1.43%	-50%	-73%
O=C(O)c1ccc2c(c1)no[n+]2[O-]	–	–	-16%	-9%
COC(=O)N/N=C\c1ccc2c(c1)no[n+]2[O-]	2.02	-1.17%	-6%	13%
COCCNC(=O)c1ccc2c(c1)no[n+]2[O-]	1.46	-1.54%	-23%	-2%
CCCCNC(=O)c1ccc2c(c1)no[n+]2[O-]	2.74	-1.54%	-71%	-66%
Cc1c(C=O)no[n+]1[O-]	0.22	-1.62%	-5%	-5%
Cc1ccc2c(c1)no[n+]2[O-]	2.18	-2%	-58%	-58%
[O-][n+]1onc(-c2ccccc2)c1CN1CCN(c2ncccn2)CC1	–	-1.22%	0%	0%
Cc1c(/C=N/NC(N)=S)no[n+]1[O-]	1.18	–	–	-95%
COCCNC(=O)N/N=C\c1ccc2c(c1)no[n+]2[O-]	2.31	-1.1%	–	–
[O-][n+]1onc(-c2ccccc2)c1CCl	4.24	-0.99%	-4%	-7%
COC(=O)N/N=C/c1no[n+]([O-])c1C	1.47	-2.08%	-50%	-50%
O=Cc1ccc2c(c1)no[n+]2[O-]	2.4	-0.93%	-30%	-5%
Cc1c(/C=N/NC(=O)NC2CCCCC2)no[n+]1[O-]	4.39	-1.59%	-50%	-85%
COC(=O)N/N=C/c1ccc2nonc2c1	2.21	–	35%	20%
O=Cc1c(-c2ccccc2)no[n+]1[O-]	–	-1.2%	-4%	18%
NC(=S)N/N=C/c1c(-c2ccccc2)no[n+]1[O-]	3.24	-1.03%	-30%	8%
COC(=O)N/N=C/c1c(-c2ccccc2)no[n+]1[O-]	3.34	-1.19%	-22%	16%
